Assay results published in patent publication US12552763B2, “Methods of protecting against neurodegeneration” (BioVentures, LLC, priority 2017, dated 2026).
Entries after “also recorded” stand apart in the source; their conditions may differ.

Tests used:
[1] = tested on: C. elegans strain AM141 (Q40::YFP aggregates); assay: Q40::YFP aggregate foci in C. elegans strain AM141 (Huntington-like polyglutamine aggregation model); type: in vivo; conditions: for reduction of aggregate count (aggregate foci): strain AM141, Q40::YFP in muscle, FIG. 3
Text: C. elegans (AM141) adults were imaged at 7 days of adult age and quantified for intensity (FIG. 2A) and number (FIG. 2B) of Q40::YFP aggregates after 0, 1, 3, or 6 d of exposure to 50-nM PNR-5-02. Treated worms differ from untreated worms (“Days Tx”=0) by 2-tailed t test: *P<0.01; **P<1E-4.
FIG. 3 depicts a graph showing reduction of protein aggregation in a C. elegans model of Huntington's disease or other neurodegenerative diseases featuring aggregates that contain polyglutamine tracts. Strain AM141, which expresses Q40::YFP in muscle, undergoes age-progressive accumulation of aggregate foci. PNR-5-02 analogues confer at least 30% reduction in formation of aggregate foci (****=P<0.00005 and *=P<0.01). PNR-5-18, PNR-4-44, PNR-5-58, and PNR-4-76 reduced aggregate count by ˜20%. PNR-5-02, PNR-4-87, PNR-5-56, and PNR-5-57 reduced aggregates ≥30%.
(§1) Several panels of drugs were tested for their ability to protect against formation of protein aggregates in the following model systems: (i) a cell-culture model of Alzheimer-like protein aggregation (SH-SY5Y-APPSw, a human neuroblastoma cell line expressing the Swedish mutation of Amyloid Precursor Protein (APP), and thus predisposed to form β-amyloid aggregates; (ii) C. elegans strain CL4176, a model of Alzheimer-like amyloidopathy that can be induced to express human Aβ1-42 in muscle, and declines sharply in motility 24-42 hours after induction unless protected by effective drugs; (iii) C. elegans strain CL2355, a model of Alzheimer-like amyloidopathy that expresses human Aβ1-42 in all neurons after upshift induction (as in ii, above), and consequently loses its normal chemotactic responses; (iv) C. elegans strain NL5901, a model of Parkinson's disease that expresses α-synuclein::GFP in neurons, forming fluorescent aggregates with age; aggregates are scored by number and intensity of GFP foci, or scored for neuron loss with age by dye-filling; and (v) C. elegans strain AM141, a model of Huntington-like polyglutamine aggregation, which expresses Q40::YFP (a 40-glutamine tract fused in-frame to yellow fluorescent protein) in muscle cells and accumulates aggregates during aging.

SH-SY5Y-APPSw cells = assay: Thioflavin-T amyloid staining in SH-SY5Y-APPSw neuroblastoma cells; type: cell-based, human; conditions: for reduction of Thioflavin-fluorescence intensity: 48 hours drug treatment, amyloid fluorescence per nucleus, P<0.0001
Protocol: FIG. 7 depicts a graph showing PNR-5-02 analogues reduce amyloid accumulation in human neuroblastoma cells overexpressing amyloid precursor protein (APPSw). SH-SY5Y-APPSw, human neuroblastoma cells overexpressing a mutant amyloid precursor protein (APPsw) associated with familial AD. Elevated APPSw leads to substantial formation of amyloid plaque, visualized by fluorescence microscopy after Thioflavin-T staining on day 3 of culture.
as §1
Human neuroblastoma cells (SH-SY5Y-APPsw), express the Swedish mutant of Amyloid Precursor Protein (APPsw) and therefore are predisposed to form amyloid aggregate. […] Amyloid fluorescence is then divided by the number of nuclei, to obtain relative amyloid content per cell.

BRI-Aβ42 mice = assay: Sarcosyl-insoluble protein aggregates in cerebral cortex of BRI-Aβ42 mice; type: in vivo
Protocol: Total protein and sarcosyl-insoluble protein aggregates were prepared from cerebral cortex of […] mice, treated as in FIG. 4. Aliquots were separated on SDS-acrylamide gels and stained with Sypro Ruby (Molecular Probes). Gel lanes were scanned, and for each aggregate-protein lane the integral of intensity was normalized to the integral for total protein. *P<0.03 by 1-tailed heteroscedastic t test.
Total protein and total sarcosyl-insoluble aggregates were isolated from cerebral cortex of BRI-Aβ42 mice, sacrificed after 10 daily IP injections with PNR-5-02 (as above) or vehicle. Protein aliquots were suspended in Laemmli buffer and resolved by SDS-acrylamide gel electrophoresis, and quantitated by protein-specific fluorescent staining. Results, presented in FIG. 5 as the percent of aggregate protein after normalization to total protein from the same sample, indicate an 18% reduction in aggregates for PNR-5-02-treated mice. Larger aggregates (at the top of each gel lane) were reduced >40%.

C. elegans = C. elegans life span; type: in vivo
Protocol: FIG. 8 depicts a graph showing that PNR-5-02 increase C. elegans life span. The effect of PNR-5-02 on C. elegans life span, at different concentrations both mean and maximum life span of the nematode life span is extended by 15%.
Synchronized eggs (expected to hatch at approximately the same time) were placed on 60-mm nutrient-agar plates to which either vehicle (0.013% DMSO, v/v) for controls or PNR-5-02 (10 μM in 0.013% DMSO) was added. Worms were transferred to fresh plates daily for 7 days, and on alternate days thereafter, scoring worms as alive if they moved spontaneously or in response to gentle prodding. Worms lost for reasons other than natural death were censored (removed from mortality calculations) from that date. PNR-5-02 extended the nematode life span by 15% (FIG. 8).

C. elegans strain CL4176 = C. elegans strain CL4176 amyloidopathy model (human Aβ1-42 in muscle, motility); type: in vivo; conditions: CL4176, decline in motility 24-42 hours after induction
Protocol: as §1

C. elegans strain CL2355 = C. elegans strain CL2355 amyloidopathy model (human Aβ1-42 in all neurons, chemotaxis); type: in vivo; conditions: CL2355, loss of chemotactic responses
Protocol: as §1

C. elegans strain NL5901 = C. elegans strain NL5901 Parkinson's disease model (α-synuclein::GFP aggregates); type: in vivo; conditions: NL5901, α-synuclein::GFP foci or neuron loss
Protocol: as §1

[2] = cerebral cortex, 10 daily IP injections 5.7 μmole/kg
[3] = at different concentrations, FIG. 8

COc1cc(OC)cc(/C(C#N)=C/c2nc3ccccc3s2)c1 [PNR-5-58]
reduction of aggregate count (aggregate foci) [1]: ~20%
reduction of Thioflavin-fluorescence intensity (SH-SY5Y-APPSw cells): 54%

COc1ccc(/C(C#N)=C/c2c[nH]c3ccccc23)cc1OC [PNR-4-87]
reduction of Thioflavin-fluorescence intensity (SH-SY5Y-APPSw cells): 34%

COc1cc(/C(C#N)=C/c2coc3ccccc23)cc(OC)c1OC [PNR-5-18]
reduction of aggregate count (aggregate foci) [1]: ~20%

COc1ccc(/C(C#N)=C/c2cc3ccccc3s2)cc1 [PNR-4-76]
reduction of aggregate count (aggregate foci) [1]: ~20%

COc1cc(/C(C#N)=C/c2cc3ccccc3[nH]2)cc(OC)c1OC [PNR-4-44]
reduction of aggregate count (aggregate foci) [1]: ~20%

COc1cc(/C(C#N)=C\c2cc3ccccc3s2)cc(OC)c1OC [PNR-5-02]
intensity and number of Q40::YFP aggregates ([1]; AM141 adults imaged at 7 days of adult age, 1 d exposure to 50-nM vs 6 d exposure): as effective in reducing AM141 aggregates as 6-days exposure; also recorded: reduces Q40 aggregated in just 1 day
protection against formation of protein aggregates ([1]; C. elegans AM141, Q40::YFP aggregates): protective
protection against formation of protein aggregates (SH-SY5Y-APPSw cells; SH-SY5Y-APPSw, β-amyloid aggregates): protective
protein aggregates in cerebral cortex (in words) (BRI-Aβ42 mice; FIG. 5, P<0.03 by 1-tailed heteroscedastic t test): reduces protein aggregates
reduction in sarcosyl-insoluble aggregates normalized to total protein (BRI-Aβ42 mice; [2]): 18%
reduction of larger aggregates (top of each gel lane) (BRI-Aβ42 mice; [2]): > 40%
life span extension (C. elegans; 10 μM in 0.013% DMSO, from eggs): 15%
maximum life span extension (C. elegans; [3]): 15%
mean life span extension (C. elegans; [3]): 15%
protection against formation of protein aggregates (C. elegans strain CL4176): protective
protection against formation of protein aggregates (C. elegans strain CL2355): protective
protection against formation of protein aggregates (C. elegans strain NL5901): protective
